# According to ChEMBL document CHEMBL4837240 (J Med Chem, 2021):
# Active and inactive are the calls of the source. The rule behind the calls is not given here.
# Assays:
# [1] = system: MDA-MB-231; assay: Antimigratory activity against human MDA-MB-231 cells assessed as suppression of migration measured after 24 hrs by Wound healing assay; format: functional, cell-based
# [2] = Toxicity in BALB/c mouse xenografted with MDA-MB-231 cells assessed as LDH level in blood at 300 mg/kg, po; format: organism-based; settings: in vivo
# [3] = biological target: Maternal embryonic leucine zipper kinase (Homo sapiens, UniProt Q14680); assay: Inhibition of human MELK assessed as residual kinase activity at 1 uM relative to control
# Sequence of Maternal embryonic leucine zipper kinase (Q14680 whole entry, looked up): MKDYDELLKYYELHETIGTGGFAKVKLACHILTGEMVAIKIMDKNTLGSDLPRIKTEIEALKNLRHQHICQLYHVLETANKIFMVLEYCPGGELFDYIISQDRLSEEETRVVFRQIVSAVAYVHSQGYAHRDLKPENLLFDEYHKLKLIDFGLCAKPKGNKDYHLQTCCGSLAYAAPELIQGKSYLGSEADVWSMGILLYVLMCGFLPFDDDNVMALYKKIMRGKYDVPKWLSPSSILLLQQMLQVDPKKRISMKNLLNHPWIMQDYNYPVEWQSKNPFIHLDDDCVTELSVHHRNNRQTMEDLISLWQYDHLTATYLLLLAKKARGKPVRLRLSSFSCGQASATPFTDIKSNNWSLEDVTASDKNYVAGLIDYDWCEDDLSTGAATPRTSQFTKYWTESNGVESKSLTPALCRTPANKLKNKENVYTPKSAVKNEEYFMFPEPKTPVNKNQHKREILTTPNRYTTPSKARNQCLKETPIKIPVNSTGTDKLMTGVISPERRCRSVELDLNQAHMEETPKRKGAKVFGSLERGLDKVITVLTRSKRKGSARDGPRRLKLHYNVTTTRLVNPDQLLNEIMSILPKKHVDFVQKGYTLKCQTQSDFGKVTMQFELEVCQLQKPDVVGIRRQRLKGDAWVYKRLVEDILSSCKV
# [4] = biological target: Vascular endothelial growth factor receptor 2 (Homo sapiens, UniProt P35968); assay: Inhibition of human KDR/VEGFR2 assessed as residual kinase activity at 1 uM relative to control
# Sequence of Vascular endothelial growth factor receptor 2 (P35968 whole entry): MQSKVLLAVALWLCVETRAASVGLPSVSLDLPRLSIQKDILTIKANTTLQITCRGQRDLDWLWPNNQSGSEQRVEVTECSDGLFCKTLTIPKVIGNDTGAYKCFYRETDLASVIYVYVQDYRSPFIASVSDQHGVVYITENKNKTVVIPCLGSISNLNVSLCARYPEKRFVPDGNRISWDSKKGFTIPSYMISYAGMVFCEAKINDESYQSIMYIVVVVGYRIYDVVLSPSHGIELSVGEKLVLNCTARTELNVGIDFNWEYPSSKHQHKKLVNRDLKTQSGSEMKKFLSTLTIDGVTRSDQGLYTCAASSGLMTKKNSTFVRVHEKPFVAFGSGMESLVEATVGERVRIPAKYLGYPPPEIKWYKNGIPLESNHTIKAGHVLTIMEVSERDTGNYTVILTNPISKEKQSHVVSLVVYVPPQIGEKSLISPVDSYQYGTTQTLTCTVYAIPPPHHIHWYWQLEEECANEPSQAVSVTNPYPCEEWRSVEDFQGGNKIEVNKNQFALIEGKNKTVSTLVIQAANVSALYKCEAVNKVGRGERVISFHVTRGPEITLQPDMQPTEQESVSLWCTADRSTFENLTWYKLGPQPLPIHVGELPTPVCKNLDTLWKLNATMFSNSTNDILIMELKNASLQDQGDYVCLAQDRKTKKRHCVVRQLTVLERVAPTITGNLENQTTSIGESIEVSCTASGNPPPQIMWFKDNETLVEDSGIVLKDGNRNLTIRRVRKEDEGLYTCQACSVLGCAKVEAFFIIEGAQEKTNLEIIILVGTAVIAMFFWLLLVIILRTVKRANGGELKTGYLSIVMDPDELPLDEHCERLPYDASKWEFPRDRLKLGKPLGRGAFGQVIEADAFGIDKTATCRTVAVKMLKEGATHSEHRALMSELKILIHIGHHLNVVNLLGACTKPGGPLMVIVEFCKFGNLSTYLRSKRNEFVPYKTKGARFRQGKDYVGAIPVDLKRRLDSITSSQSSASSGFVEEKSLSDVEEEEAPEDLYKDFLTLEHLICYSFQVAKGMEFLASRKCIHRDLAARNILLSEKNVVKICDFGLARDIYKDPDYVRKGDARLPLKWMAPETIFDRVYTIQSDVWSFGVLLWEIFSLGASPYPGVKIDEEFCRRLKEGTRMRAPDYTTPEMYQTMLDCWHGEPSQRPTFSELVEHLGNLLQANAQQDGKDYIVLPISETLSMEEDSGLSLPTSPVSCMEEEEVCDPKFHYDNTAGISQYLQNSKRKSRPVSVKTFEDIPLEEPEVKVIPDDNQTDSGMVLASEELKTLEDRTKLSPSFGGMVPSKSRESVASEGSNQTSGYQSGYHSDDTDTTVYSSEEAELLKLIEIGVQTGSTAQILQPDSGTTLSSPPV
# [5] = biological target: Misshapen-like kinase 1 (Homo sapiens, UniProt Q8N4C8); assay: Inhibition of human MINK
# Sequence of Misshapen-like kinase 1 (Q8N4C8 whole entry): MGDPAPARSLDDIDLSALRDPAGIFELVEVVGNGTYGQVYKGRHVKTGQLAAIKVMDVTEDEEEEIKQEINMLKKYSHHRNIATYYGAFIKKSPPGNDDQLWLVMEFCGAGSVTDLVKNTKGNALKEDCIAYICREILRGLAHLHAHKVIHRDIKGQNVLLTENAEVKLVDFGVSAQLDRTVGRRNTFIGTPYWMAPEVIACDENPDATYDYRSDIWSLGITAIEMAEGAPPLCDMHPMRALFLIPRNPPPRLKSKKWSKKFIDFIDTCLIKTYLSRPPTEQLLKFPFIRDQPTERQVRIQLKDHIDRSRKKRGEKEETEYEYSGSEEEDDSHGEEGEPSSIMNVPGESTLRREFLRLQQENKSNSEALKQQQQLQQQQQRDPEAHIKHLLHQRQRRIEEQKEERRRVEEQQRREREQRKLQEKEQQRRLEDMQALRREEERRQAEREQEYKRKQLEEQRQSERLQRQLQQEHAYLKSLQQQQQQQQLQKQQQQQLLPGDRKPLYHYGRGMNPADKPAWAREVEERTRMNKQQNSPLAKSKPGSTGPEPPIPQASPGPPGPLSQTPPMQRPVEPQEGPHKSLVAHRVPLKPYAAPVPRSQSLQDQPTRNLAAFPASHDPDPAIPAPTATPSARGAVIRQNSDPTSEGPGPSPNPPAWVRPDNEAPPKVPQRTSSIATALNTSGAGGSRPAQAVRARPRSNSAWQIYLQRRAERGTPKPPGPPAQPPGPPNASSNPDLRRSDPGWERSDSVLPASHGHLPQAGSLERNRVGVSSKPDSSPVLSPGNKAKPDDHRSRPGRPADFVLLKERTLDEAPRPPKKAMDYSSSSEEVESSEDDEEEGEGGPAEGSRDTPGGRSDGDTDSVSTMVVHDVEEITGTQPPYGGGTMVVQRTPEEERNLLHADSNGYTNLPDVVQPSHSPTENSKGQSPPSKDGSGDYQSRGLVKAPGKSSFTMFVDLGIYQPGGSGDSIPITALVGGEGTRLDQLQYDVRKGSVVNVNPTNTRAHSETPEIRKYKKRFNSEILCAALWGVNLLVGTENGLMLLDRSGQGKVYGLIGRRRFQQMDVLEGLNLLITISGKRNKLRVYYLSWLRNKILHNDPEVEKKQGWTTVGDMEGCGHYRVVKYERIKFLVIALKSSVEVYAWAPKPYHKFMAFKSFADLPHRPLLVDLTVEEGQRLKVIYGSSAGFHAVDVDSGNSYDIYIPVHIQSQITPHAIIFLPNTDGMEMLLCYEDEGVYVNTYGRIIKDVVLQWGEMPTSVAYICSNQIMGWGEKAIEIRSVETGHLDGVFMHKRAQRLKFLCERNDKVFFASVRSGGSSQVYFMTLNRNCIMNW
# [6] = biological target: T1, Vascular endothelial growth factor receptor 3 (Homo sapiens, UniProt P35916); assay: Inhibition of VEGFR3 phosphorylation in human dermal lymphatic endothelial cells incubated for 24 hrs by Western blot analysis; format: tissue-based; settings: HDLEC
# T1 sequence (P35916 whole entry): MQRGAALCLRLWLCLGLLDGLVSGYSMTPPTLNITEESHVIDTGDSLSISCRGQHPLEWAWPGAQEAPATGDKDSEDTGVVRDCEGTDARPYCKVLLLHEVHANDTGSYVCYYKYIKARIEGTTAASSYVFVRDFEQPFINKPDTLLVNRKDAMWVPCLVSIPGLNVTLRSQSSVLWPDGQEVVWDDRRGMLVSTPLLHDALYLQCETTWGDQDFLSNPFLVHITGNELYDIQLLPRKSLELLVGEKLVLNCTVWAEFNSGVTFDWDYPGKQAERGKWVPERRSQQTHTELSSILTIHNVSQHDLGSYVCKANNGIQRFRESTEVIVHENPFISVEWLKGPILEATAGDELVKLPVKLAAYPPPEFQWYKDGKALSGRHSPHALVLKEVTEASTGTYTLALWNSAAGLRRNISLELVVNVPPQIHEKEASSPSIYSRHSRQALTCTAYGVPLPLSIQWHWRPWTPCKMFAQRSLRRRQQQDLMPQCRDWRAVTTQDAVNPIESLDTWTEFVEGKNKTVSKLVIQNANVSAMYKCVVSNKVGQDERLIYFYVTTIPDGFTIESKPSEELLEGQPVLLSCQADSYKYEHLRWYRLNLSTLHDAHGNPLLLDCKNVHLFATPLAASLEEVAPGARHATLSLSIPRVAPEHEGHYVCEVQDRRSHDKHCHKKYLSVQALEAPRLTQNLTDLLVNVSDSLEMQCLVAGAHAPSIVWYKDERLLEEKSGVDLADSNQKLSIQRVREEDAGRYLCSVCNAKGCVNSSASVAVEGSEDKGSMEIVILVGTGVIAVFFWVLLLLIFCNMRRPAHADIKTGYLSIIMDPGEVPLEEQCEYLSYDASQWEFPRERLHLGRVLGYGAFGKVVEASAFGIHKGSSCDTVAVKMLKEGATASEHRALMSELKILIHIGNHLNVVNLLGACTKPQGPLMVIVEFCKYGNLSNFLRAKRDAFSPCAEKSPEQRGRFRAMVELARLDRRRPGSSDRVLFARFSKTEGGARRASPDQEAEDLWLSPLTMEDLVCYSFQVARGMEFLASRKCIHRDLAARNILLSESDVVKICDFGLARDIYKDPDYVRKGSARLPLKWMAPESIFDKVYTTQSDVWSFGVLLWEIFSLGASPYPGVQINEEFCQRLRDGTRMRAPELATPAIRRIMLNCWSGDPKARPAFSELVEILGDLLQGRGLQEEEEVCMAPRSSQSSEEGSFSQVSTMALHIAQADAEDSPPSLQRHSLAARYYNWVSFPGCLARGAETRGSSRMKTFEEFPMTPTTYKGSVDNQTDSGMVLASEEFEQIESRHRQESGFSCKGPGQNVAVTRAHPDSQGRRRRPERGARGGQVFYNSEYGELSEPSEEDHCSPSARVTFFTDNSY
# [7] = biological target: T1, Vascular endothelial growth factor receptor 3; assay: Inhibition of VEGFR3 in human dermal lymphatic endothelial cells assessed as inhibition of ERK1/2 phosphorylation incubated for 24 hrs by Western blot analysis; settings: HDLEC
# [8] = system: MDA-MB-231; assay: Inhibition of colony formation in human MDA-MB-231 cells at 2.5 uM incubated for 24 hrs by clonogenic assay; format: functional
# [9] = system: MDA-MB-436; assay: Inhibition of colony formation in human MDA-MB-436 cells at 2.5 uM incubated for 24 hrs by clonogenic assay; format: functional
# [10] = system: MDA-MB-231; assay: Induction of apoptosis in human MDA-MB-231 cells assessed as accumulation at G1 phase incubated for 48 hrs by flow cytometry; format: functional, cell-based
# [11] = system: MDA-MB-231; assay: Induction of apoptosis in human MDA-MB-231 cells assessed as upregulation of Bax expression up to 10 uM incubated for 24 hrs by Western blotting analysis; format: functional, cell-based; settings: dose microM <=10, time 24.0 hrs
# [12] = system: MDA-MB-231; assay: Induction of apoptosis in human MDA-MB-231 cells assessed as upregulation of caspase 3 up to 10 uM incubated for 24 hrs by Western blotting analysis; format: functional, cell-based; settings: dose microM <=10, time 24.0 hrs
# [13] = system: MDA-MB-436; assay: Induction of apoptosis in human MDA-MB-436 cells assessed as upregulation of caspase 3 up to 10 uM incubated for 24 hrs by Western blotting analysis; format: functional, cell-based; settings: dose microM <=10, time 24.0 hrs
# [14] = system: MDA-MB-436; assay: Induction of apoptosis in human MDA-MB-436 cells assessed as cleaved caspase 3 up to 10 uM incubated for 24 hrs by Western blotting analysis; format: functional, cell-based; settings: dose microM <=10, time 24.0 hrs
# [15] = system: MDA-MB-436; assay: Antimigratory activity against human MDA-MB-436 cells assessed as suppression of migration measured after 24 hrs by Wound healing assay; format: functional, cell-based
# [16] = system: MDA-MB-231; assay: Antimigratory activity against human MDA-MB-231 cells assessed as reduction in cell migration incubated for 12 hrs by transwell assay; format: functional, cell-based
# [17] = system: MDA-MB-436; assay: Upregulation of E-cadherin protein expression in human MDA-MB-436 cells up to 10 uM incubated for 24 hrs by Western blot analysis; format: functional, cell-based; settings: dose microM <=10, time 24.0 hrs
# [18] = system: MDA-MB-436; assay: Downregulation of MMP2 protein expression in human MDA-MB-436 cells up to 10 uM incubated for 24 hrs by Western blot analysis; format: functional, cell-based; settings: dose microM <=10, time 24.0 hrs
# [19] = biological target: T1, Vascular endothelial growth factor receptor 3; assay: Inhibition of VEGFR3 in human MDA-MB-231 cells assessed as inhibition of STAT5 phosphorylation at 2.5 uM incubated for 24 hrs by Western blot analysis; format: cell-based
# [20] = Half life in Sprague-Dawley rat at 1 mg/kg, iv by LC-MS analysis; format: ADME, organism-based; settings: in vivo
# [21] = AUC (0 to t) in Sprague-Dawley rat at 1 mg/kg, iv by LC-MS analysis; format: ADME, organism-based; design: dose 1 mg/kg; settings: in vivo
# [22] = AUC (0 to t) in Sprague-Dawley rat at 10 mg/kg, po by LC-MS analysis; format: ADME, organism-based; design: dose 10 mg/kg; settings: in vivo
# [23] = AUC (0 to infinity) in Sprague-Dawley rat at 1 mg/kg, iv by LC-MS analysis; format: ADME, organism-based; design: time infinity, route intravenous, dose 1 mg/kg; settings: in vivo
# [24] = AUC (0 to infinity) in Sprague-Dawley rat at 10 mg/kg, po by LC-MS analysis; format: ADME, organism-based; design: route oral, time infinity, dose 10 mg/kg; settings: in vivo
# [25] = Apparent volume of distribution in Sprague-Dawley rat at 1 mg/kg, iv by LC-MS analysis; format: ADME, organism-based; settings: in vivo, read-out: Vz
# [26] = Bioavailability in Sprague-Dawley rat at 1 mg/kg, iv by LC-MS analysis; format: ADME, organism-based; settings: in vivo
# [27] = organism: Danio rerio; assay: Antiangiogenesis activity against transgenic zebrafish with GFP-labeled vascular endothelial cells assessed as inhibition of subintestinal vessels at 10 uM incubated for 24 hrs by fluorescence microscopy; format: functional, organism-based
# [28] = Toxicity in BALB/c mouse xenografted with MDA-MB-231 cells assessed as effect on body weight at 50 mg/kg, po; format: organism-based; settings: in vivo
# [29] = Toxicity in BALB/c mouse xenografted with MDA-MB-231 cells assessed as uric acid level in blood at 300 mg/kg, po; format: organism-based; settings: in vivo
# [30] = Toxicity in BALB/c mouse xenografted with MDA-MB-231 cells assessed as change in heart at 300 mg/kg, po by hematoxylin and eosin staining based analysis; format: organism-based; settings: in vivo
# [31] = Toxicity in BALB/c mouse xenografted with MDA-MB-231 cells assessed as change in kidney at 300 mg/kg, po by hematoxylin and eosin staining based analysis; format: organism-based; settings: in vivo
# [32] = biological target: Vascular endothelial growth factor receptor 3 (Mus musculus) (UniProt P35917); assay: In vivo inhibition of VEGFR3 phosphorylation in BALB/c mouse xenografted with MDA-MB-231 cells assessed as decrease in STAT5 phosphorylation at 25 mg/kg, po by immunohistochemistry analysis; format: functional, organism-based
# [33] = system: MDA-MB-231; assay: Antimetastatic activity against human MDA-MB-231 cells injected into vein of BALB/c mouse lung metastatic model assessed as less lung metastatic nodules at 50 mg/kg, po once a day measured on day 21; format: functional, organism-based; settings: time 21.0 day
# [34] = system: Mus musculus; assay: Downregulation of MMP2 protein expression human MDA-MB-231 cells injected into vein of BALB/c mouse lung metastatic model at 50 mg/kg, po once a day measured on day 21 by […]; format: functional, organism-based
structure (smiles),measurement,setting,value
CN1CCN(c2ccc(-c3cc4c(N5CCN(C(=O)Nc6ccc(Cl)c(C(F)(F)F)c6)CC5)ncnc4s3)cc2)CC1,Activity,[1],Active
same,Activity,[2],Non-Toxic
same,Activity,[3],17%
same,Activity,[4],85%
same,IC50,[5],335 nM
same,inhibition,[6],Dose-Dependent Effect
same,inhibition,[7],Dose-Dependent Effect
same,inhibition at 2.5 µM,[8],100%
same,inhibition at 2.5 µM,[9],100%
same,Activity,[10],Dose-Dependent Effect
same,Activity,[11],Active
same,Activity,[12],Active
same,Activity,[13],Active
same,Activity,[14],Active
same,Activity,[15],Active
same,Activity,[16],Active
same,Activity,[17],Active
same,Activity,[18],Active
same,inhibition,[19],Active
same,half-life,[20],13.1 h
same,AUC(0-t),[21],2570 ng·h/mL
same,AUC(0-t),[22],9220 ng·h/mL
same,AUC(0-inf),[23],3480 ng·h/mL
same,AUC(0-inf),[24],12300 ng·h/mL
same,Vd,[25],5.4 L/kg
same,bioavailability,[26],30.9%
same,inhibition,[27],Active
same,Activity,[28],Non-Toxic
same,Activity,[29],Non-Toxic
same,Activity,[30],Non-Toxic
same,Activity,[31],Non-Toxic
same,Activity,[32],Active
same,Activity,[33],Active
same,Activity,[34],Active
